Key:
late watergrass [1] = experiment: Test Example 1: herbicidal activity, application before weed generation under submerged conditions (Table 16, symbol A); format: in vivo, late watergrass (Echinochloa oryzicola); settings: 320 g/ha applied herbicide
Summary of the method: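 Alluvial soil was flooded to 4 cm depth, weed seeds were sown mixed and 2.5-leaf rice seedlings were transplanted. On sowing day, the compound's emulsion, diluted in water to a set dose, was applied to the water surface. Plants grew at 25–30 °C and were scored 0–5 after three weeks.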

late watergrass [2] = experiment: Test Example 2: herbicidal activity, application during weed generation under submerged conditions (Table 17, symbol A); format: in vivo, late watergrass (Echinochloa oryzicola); settings: AAH 320 g/ha; application during weed generation, submerged conditions
Summary of the method: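 Alluvial soil in Wagner pots was flooded to 4 cm depth and sown with the three weeds together; pots were kept in a greenhouse at 25° C. to 30° C. At the one to two leaf stage, an emulsion formulation diluted in water to a set rate went onto the water surface; scored three weeks later.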

Chinese sprangletop = experiment: Test Example 3: herbicidal effect by foliage application, Wagner pot (Table 18, symbol D); format: in vivo, chinese sprangletop (Leptochloa chinensis); settings: amount of applied herbicide 320 g/ha
Summary of the method: (§1)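 Plants were sown in alluvial soil held under 0.1–0.5 cm standing water and grown 14 days in a greenhouse at 25–30 °C. An emulsifiable formulation, water-diluted to the set dose, was then sprayed onto the foliage, and effects were scored three weeks later using previously defined criteria.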

rice flat sedge = experiment: Test Example 3: herbicidal effect by foliage application, Wagner pot (Table 18, symbol E); format: in vivo, rice flat sedge (Cyperus iria); settings: amount of applied herbicide 320 g/ha
Summary of the method: as §1

southern crabgrass = experiment: Test Example 4: herbicidal effect by soil treatment (Table 19, symbol F); format: in vivo, southern crabgrass (Digitaria ciliaris); settings: amount of applied herbicide 320 g/ha
Summary of the method: (§2)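 Soil-surface application: an emulsion agent diluted with water to the predetermined dose is sprayed uniformly over seeds lying under roughly 1.5 cm of sterilized diluvial soil. Boxes stay in a greenhouse at 25° C. to 30° C. Three weeks later, each species is graded on previously defined criteria.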

wild oat [3] = experiment: Test Example 4: herbicidal effect by soil treatment (Table 19, symbol I); format: in vivo, wild oat (Avena fatua); settings: amount of applied herbicide 320 g/ha
Summary of the method: as §2

Italian ryegrass [4] = experiment: Test Example 4: herbicidal effect by soil treatment (Table 19, symbol K); format: in vivo, Italian ryegrass (Lolium multiflorum); settings: amount of applied herbicide 320 g/ha
Summary of the method: as §2

windgrass = experiment: Test Example 4: herbicidal effect by soil treatment (Table 19, symbol L); format: in vivo, windgrass (Apera spica-venti); settings: amount of applied herbicide 320 g/ha
Summary of the method: as §2

lambsquarters [5] = experiment: Test Example 4: herbicidal effect by soil treatment (Table 19, symbol O); format: in vivo, lambsquarters (Chenopodium album); settings: amount of applied herbicide 320 g/ha
Summary of the method: as §2

chickweed [6] = experiment: Test Example 4: herbicidal effect by soil treatment (Table 19, symbol P); format: in vivo, common chickweed (Stellaria media); settings: amount of applied herbicide 320 g/ha
Summary of the method: as §2

barnyard grass = experiment: Test Example 5: herbicidal effect by foliage application, plastic box (Table 20, symbol H); format: in vivo, barnyard grass (Echinochloa crus-galli); settings: foliage application, 320 g/ha, evaluated three weeks after application
Summary of the method: (§3)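 Sow seeds spot-wise in sterilized diluvial soil; cover with ~1.5 cm soil. Grow 14 days in greenhouse, 25° C. to 30° C. Spray foliage with emulsion diluted to predetermined amount. Rate effect after 3 weeks.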

wild oat [7] = experiment: Test Example 5: herbicidal effect by foliage application, plastic box (Table 20, symbol I); format: in vivo, wild oat (Avena fatua); settings: foliage application, 320 g/ha, evaluated three weeks after application
Summary of the method: as §3

Italian ryegrass [8] = experiment: Test Example 5: herbicidal effect by foliage application, plastic box (Table 20, symbol K); format: in vivo, Italian ryegrass (Lolium multiflorum); settings: foliage application, 320 g/ha, evaluated three weeks after application
Summary of the method: as §3

redroot pigweed = experiment: Test Example 5: herbicidal effect by foliage application, plastic box (Table 20, symbol N); format: in vivo, redroot pigweed (Amaranthus retroflexus); settings: foliage application, 320 g/ha, evaluated three weeks after application
Summary of the method: as §3

lambsquarters [9] = experiment: Test Example 5: herbicidal effect by foliage application, plastic box (Table 20, symbol O); format: in vivo, lambsquarters (Chenopodium album); settings: foliage application, 320 g/ha, evaluated three weeks after application
Summary of the method: as §3

chickweed [10] = experiment: Test Example 5: herbicidal effect by foliage application, plastic box (Table 20, symbol P); format: in vivo, common chickweed (Stellaria media); settings: foliage application, 320 g/ha, evaluated three weeks after application
Summary of the method: as §3

For `CCCSc1ccc(-c2sc3ccc(F)cc3c2-c2c(OC(=O)CCC)c(C)nn(C)c2=O)cc1` [2-249], the “Herbicidal effect on A: late watergrass (grade 0-5)” value (late watergrass [1]) was 3 (Herbicidal rate of 40% or more and less than 70%), the “herbicidal effect rating, A: late watergrass” value (late watergrass [2]) was 4 (Herbicidal rate of 70% or more and less than 90%) and the “herbicidal effect on D: Chinese sprangletop” value (Chinese sprangletop) was 3 (Herbicidal rate of 40% or more and less than 70%). The “herbicidal effect on E: rice flat sedge” value (rice flat sedge) was 5 (Herbicidal rate of 90% or more (almost completely withered)), the “herbicidal effect on F: southern crabgrass” value (southern crabgrass) was 3 (Herbicidal rate of 40% or more and less than 70%) and the “herbicidal effect on I: wild oat” value (wild oat [3]) was 0 (Herbicidal rate of 5% or less (almost no effect)). The “herbicidal effect on K: Italian ryegrass” value (Italian ryegrass [4]) was 0 (Herbicidal rate of 5% or less (almost no effect)), the “herbicidal effect on L: windgrass” value (windgrass) was 0 (Herbicidal rate of 5% or less (almost no effect)) and the “herbicidal effect on O: lambsquarters” value (lambsquarters [5]) was 3 (Herbicidal rate of 40% or more and less than 70%). For the same compound, the “herbicidal effect on P: chickweed” value (chickweed [6]) was 0 (Herbicidal rate of 5% or less (almost no effect)), the “herbicidal effect on H: barnyard grass (criteria 0-5)” value (barnyard grass) was 5 (Herbicidal rate of 90% or more (almost completely withered)) and the “herbicidal effect on I: wild oat (criteria 0-5)” value (wild oat [7]) was 4 (Herbicidal rate of 70% or more and less than 90%). For the same compound, the “herbicidal effect on K: Italian ryegrass (criteria 0-5)” value (Italian ryegrass [8]) was 3 (Herbicidal rate of 40% or more and less than 70%), the “herbicidal effect on N: redroot pigweed (criteria 0-5)” value (redroot pigweed) was 5 (Herbicidal rate of 90% or more (almost completely withered)) and the “herbicidal effect on O: lambsquarters (criteria 0-5)” value (lambsquarters [9]) was 4 (Herbicidal rate of 70% or more and less than 90%). The “herbicidal effect on P: chickweed (criteria 0-5)” value (chickweed [10]) was 5 (Herbicidal rate of 90% or more (almost completely withered)).

With `Cc1nn(C)c(=O)c(-c2c(-c3ccc(SC(C)C)cc3)sc3ccc(F)cc23)c1O` [2-252] the “Herbicidal effect on A: late watergrass (grade 0-5)” value (late watergrass [1]) was 3 (Herbicidal rate of 40% or more and less than 70%), the “herbicidal effect rating, A: late watergrass” value (late watergrass [2]) was 4 (Herbicidal rate of 70% or more and less than 90%) and the “herbicidal effect on D: Chinese sprangletop” value (Chinese sprangletop) was 5 (Herbicidal rate of 90% or more (almost completely withered)). For the same compound, the “herbicidal effect on E: rice flat sedge” value (rice flat sedge) was 5 (Herbicidal rate of 90% or more (almost completely withered)), the “herbicidal effect on F: southern crabgrass” value (southern crabgrass) was 2 (Herbicidal rate of 20% or more and less than 40%) and the “herbicidal effect on I: wild oat” value (wild oat [3]) was 0 (Herbicidal rate of 5% or less (almost no effect)). For the same compound, the “herbicidal effect on K: Italian ryegrass” value (Italian ryegrass [4]) was 3 (Herbicidal rate of 40% or more and less than 70%), the “herbicidal effect on L: windgrass” value (windgrass) was 0 (Herbicidal rate of 5% or less (almost no effect)) and the “herbicidal effect on O: lambsquarters” value (lambsquarters [5]) was 4 (Herbicidal rate of 70% or more and less than 90%). For the same compound, the “herbicidal effect on P: chickweed” value (chickweed [6]) was 5 (Herbicidal rate of 90% or more (almost completely withered)), the “herbicidal effect on H: barnyard grass (criteria 0-5)” value (barnyard grass) was 5 (Herbicidal rate of 90% or more (almost completely withered)) and the “herbicidal effect on I: wild oat (criteria 0-5)” value (wild oat [7]) was 4 (Herbicidal rate of 70% or more and less than 90%). The “herbicidal effect on K: Italian ryegrass (criteria 0-5)” value (Italian ryegrass [8]) was 5 (Herbicidal rate of 90% or more (almost completely withered)), the “herbicidal effect on N: redroot pigweed (criteria 0-5)” value (redroot pigweed) was 5 (Herbicidal rate of 90% or more (almost completely withered)) and the “herbicidal effect on O: lambsquarters (criteria 0-5)” value (lambsquarters [9]) was 5 (Herbicidal rate of 90% or more (almost completely withered)). The “herbicidal effect on P: chickweed (criteria 0-5)” value (chickweed [10]) was 5 (Herbicidal rate of 90% or more (almost completely withered)).

Source: patent publication US20230085307A1, “PYRIDAZINONE COMPOUND AND HERBICIDE” (NISSAN CHEMICAL CORPORATION, priority 2019, published 2023)
